The test system of this experiment is T. rubrum. The experiment can be described thus: Full skin model infected with spores, treatment, histology (PAS-staining). Type of experiment: cell-based, Trichophyton rubrum. To be noted: for spread of T. rubrum: up to 72 h after application, ciclopiroxolamin 400 µg/mL, terbinafin 0.050 µg/mL, histology vs infected untreated control; for outgrowth of the spores of T. rubrum: sertaconazol 0.025 µg/mL, Fig. 5. The source says: For an application in vivo, there is the additional requirement for the antimycotic substances to evoke a targeted antimycotic activity in the presence of human cells. Thus, 3D-cell-cultures such as full skin models are used to simulate the in vivo conditions. Such full skin models are for example described in Reddersen K, Wiegand C, Elsner P, Hipler UC. Three-dimensional human skin model infected with Staphylococcus aureus as a tool for evaluation of bioactivity and biocompatibility of antiseptics. Int J Antimicrob Agents. 2019; 54(3):283-291; Wiegand C, Fink S, Beier O, Horn K, Pfuch A, Schimanski A, Grünler B, Hipler UC, Elsner P. Dose- and Time-Dependent Cellular Effects of Cold Atmospheric Pressure Plasma Evaluated in 3D Skin Models. Skin Pharmacol Physiol. 2016;29(5):257-265. Particularly, such full skin models are made of a collagen matrix, which is colonized with primary human fibroblasts, and a fully differentiated epidermis made of primary human keratinocytes. For the experiments, the model is infected in vitro with spores, such that a determination of the sporistatic or sporicidal influence of the substances to be examined at in vivo relevant conditions is allowed. Compared to a 2D-model, the 3D full skin model has the advantage that the cells are in their natural three-dimensional surrounding and show a corresponding behaviour. Such, the antimycotic and sporistatic or sporicidal effects can be examined in situ and in the presence of human cells.
The spore suspensions and the solutions of sertaconazol, ciclopiroxolamin and terbinafin were prepared as in Example 1, wherein the respective test concentrations were obtained by diluting these solutions in ultrapure water (WFI; Fresenius Kabi) instead of SGB (Merck). Full skin models were produced as previously described [Reddersen K, Wiegand C, Elsner P, Hipler UC. Three-dimensional human skin model infected with Staphylococcus aureus as a tool for evaluation of bioactivity and biocompatibility of antiseptics. Int J Antimicrob Agents. 2019; 54(3):283-291; Wiegand C, Fink S, Beier O, Horn K, Pfuch A, Schimanski A, Grünler B, Hipler UC, Elsner P. Dose- and Time-Dependent Cellular Effects of Cold Atmospheric Pressure Plasma Evaluated in 3D Skin Models. Skin Pharmacol Physiol. 2016;29(5):257-265].Particularly, normal human dermal fibroblasts (NHDF; Lot 1060702.1, Promocell) and normal human epidermal keratinocytes (NHEK; Lot 9100102, Promocell) were used. Fibroblasts were cultivated in Dulbecco's modified eagle medium (DMEM; Lot MC09049P, Amimed), with 2% foetal calf serum (Lot P160509; PAN), 5 ng/mL hFGF (Lot 0329586; novoprotein) and 5 µg/ml Insulin (Lot H07443P, AMIMED) at 37°C and a 5% CO2 atmosphere. […]

As for `Cc1cc(C2CCCCC2)n(O)c(=O)c1` [Ciclopiroxolamin, ciclopiroxolamin], the “spread of T. rubrum” value was “reduce the spread of T. rubrum but could not inhibit it”. In the case of `Clc1ccc(C(Cn2ccnc2)OCc2csc3c(Cl)cccc23)c(Cl)c1` (stereo not shown) [Sertaconazol, sertaconazol], the “outgrowth of the spores of T. rubrum” value runs as follows: (48 h treatment) “inhibit the outgrowth”; (72 h treatment) “reduce the outgrowth”. As to `CN(C/C=C/C#CC(C)(C)C)Cc1cccc2ccccc12` [Terbinafin, terbinafin], the “spread of T. rubrum” value is reported as “did not have any effect”.

Source of the values: patent publication EP4129284B1, “SERTACONAZOL FOR PROVIDING A SPORISTATIC AND/OR SPORICIDAL EFFECT” (Dr. Pfleger Arzneimittel GmbH, priority 2021, dated 2023).
